We go through 33 molecules from patent US20240279215A1 (Cytokinetics, Incorporated, priority 2022, published 2024).

In this assay the target is human NAMPT (Homo sapiens (Human), UniProt P43490). Briefly: NMN fluorescence biochemical assay (human recombinant NAMPT enzyme assay). The procedure, abridged:
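Activation of recombinant human NAMPT (6 nM) was tested with 2.5 mM ATP, 20 μM PRPP and 150 μM nicotinamide in 50 mM HEPES pH 7.2 for 60 min at ambient temperature. NMN was derivatized with acetophenone/KOH/formic acid and read by fluorescence (355/460 nm) after 40 min.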

Sequence of human NAMPT (P43490 whole entry): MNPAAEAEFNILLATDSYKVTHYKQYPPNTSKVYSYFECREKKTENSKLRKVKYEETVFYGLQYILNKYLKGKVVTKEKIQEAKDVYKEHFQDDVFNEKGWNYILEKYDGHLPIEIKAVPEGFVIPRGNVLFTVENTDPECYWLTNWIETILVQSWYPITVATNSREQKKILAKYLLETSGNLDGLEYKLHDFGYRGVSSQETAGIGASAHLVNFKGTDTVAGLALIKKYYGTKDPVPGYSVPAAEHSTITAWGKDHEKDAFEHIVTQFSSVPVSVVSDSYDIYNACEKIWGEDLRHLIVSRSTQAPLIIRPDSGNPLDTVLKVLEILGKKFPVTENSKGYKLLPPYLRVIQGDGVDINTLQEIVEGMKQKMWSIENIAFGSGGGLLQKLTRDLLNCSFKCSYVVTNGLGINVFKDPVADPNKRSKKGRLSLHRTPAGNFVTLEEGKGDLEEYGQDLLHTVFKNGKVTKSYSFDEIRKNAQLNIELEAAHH

A word on the EC50: it is the concentration that produces a half-maximal response. `CN1CC(=O)NC[C@@H]1c1ccc(NC(=O)OCc2ccc(F)cc2)cc1` [Compound 278, 4-fluorobenzyl (S)-(4-(1-methyl-5-oxopiperazin-2-yl)phenyl)carbamate]: the “AC1.4 Human” value was found to be 3.40 µM and the EC50 turned out to be 17.4 µM.

For the molecule `O=C(Nc1ccc(Cc2ncccn2)cc1)OCc1ccc(Cl)cc1` [Compound 279, 4-chlorobenzyl (4-(pyrimidin-2-ylmethyl)phenyl)carbamate], the “AC1.4 Human” value was found to be 3.43 µM and the 50% effective concentration (EC50) amounted to 29 µM.

`CO[C@H]1CC[C@@H](NC(=O)Cc2ccc(NC(=O)OCc3ccc(Cl)cc3)cc2)CC1` [Compound 280, (4-chlorophenyl)methyl N-[4-({[(1s,4s)-4-methoxycyclohexyl]carbamoyl}methyl)phenyl]carbamate]: the “AC1.4 Human” value came out at 3.51 µM and the EC50 was 14.5 µM.

For `CC(=O)N1CCOC(c2ccc(NC(=O)OCc3ccc(Cl)cc3)cc2)C1` (stereo not drawn) [Compound 281, (4-chlorophenyl)methyl N-[4-(4-acetylmorpholin-2-yl)phenyl]carbamate], the “AC1.4 Human” value is 3.56 µM and the EC50 was 46.9 µM.

As to `O=C(Nc1ccc(CC(=O)N2CCN(CC(F)F)CC2)cc1)OCc1ccc(Cl)cc1` [Compound 282, (4-chlorophenyl)methyl N-(4-{2-[4-(2,2-difluoroethyl)piperazin-1-yl]-2-oxoethyl}phenyl)carbamate], the “AC1.4 Human” value was determined as 3.57 µM and the EC50 is 19.1 µM.

Take `COC1CCN(C(=O)Cc2ccc(NC(=O)OCc3ccc(Cl)cc3)cc2)CC1` [Compound 283, (4-chlorophenyl)methyl N-{4-[2-(4-methoxypiperidin-1-yl)-2-oxoethyl]phenyl}carbamate]: the “AC1.4 Human” value is 3.61 µM and the EC50 was found to be 47.9 µM.

On to `CN1CCN(Cc2ccc(NC(=O)OCc3ccc(Cl)cc3)cc2)CC1=O` [Compound 284, (4-chlorophenyl)methyl N-{4-[(4-methyl-3-oxopiperazin-1-yl)methyl]phenyl}carbamate], for which the “AC1.4 Human” value amounted to 3.72 µM and the EC50 turned out to be 19.2 µM.

With `O=C(Nc1ccc(CNC(=O)C2CCOCC2)cc1)OCc1ccc(Cl)cc1` [Compound 285, (4-chlorophenyl)methyl N-{4-[(oxan-4-ylformamido)methyl]phenyl}carbamate], the “AC1.4 Human” value is 3.78 µM and the EC50 was 9.55 µM.

In the case of `O=C(Nc1ccc(CNC(=O)N2CCCCC2)cc1)OCc1ccc(Cl)cc1` [Compound 286, (4-chlorophenyl)methyl N-{4-[(piperidine-1-carbonylamino)methyl]phenyl}carbamate], the “AC1.4 Human” value came out at 3.79 µM and the EC50 was 14.2 µM.

With `O=C(Nc1ccc(CC(=O)N2CCCC[C@@H]2CO)cc1)OCc1ccc(Cl)cc1` [Compound 287, (4-chlorophenyl)methyl N-(4-{2-[(2R)-2-(hydroxymethyl)piperidin-1-yl]-2-oxoethyl}phenyl)carbamate], the “AC1.4 Human” value came out at 3.81 µM and the EC50 was determined as 20.6 µM.

Take `CC(C)(C)OC(=O)N1CC(OCc2ccc(NC(=O)OCc3ccc(Cl)cc3)cc2)C1` [Compound 288, tert-butyl 3-{[4-({[(4-chlorophenyl)methoxy]carbonyl}amino)phenyl]methoxy}azetidine-1-carboxylate]: the “AC1.4 Human” value was found to be 3.88 µM and the EC50 was determined as 3.45 µM.

Take `CCc1cc(C(=O)N(C)Cc2ccc(NC(=O)OCc3ccc(Cl)cc3)cc2)n(C)n1` [Compound 289, (4-chlorophenyl)methyl N-(4-{[1-(5-ethyl-2-methylpyrazol-3-yl)-N-methylformamido]methyl}phenyl)carbamate]: the “AC1.4 Human” value came to 3.95 µM and the EC50 worked out at 50.3 µM.

`C[C@H](NC(=O)c1ocnc1C1CC1)c1ccc(NC(=O)OCc2ccc(Cl)cc2)cc1` [Compound 290, (4-chlorophenyl)methyl N-{4-[(1S)-1-[(4-cyclopropyl-1,3-oxazol-5-yl)formamido]ethyl]phenyl}carbamate]: the “AC1.4 Human” value is 3.95 µM and the EC50 was found to be 16.9 µM.

`COc1ccc(COC(=O)Nc2ccc(COC3CCN(C4COC4)CC3)cc2)cc1` [Compound 291, 4-methoxybenzyl (4-(((1-(oxetan-3-yl)piperidin-4-yl)oxy)methyl)phenyl)carbamate]: the “AC1.4 Human” value stood at 3.97 µM and the 50% effective concentration (EC50) is 38.2 µM.

Consider `Cc1ccc(Cc2ccc(NC(=O)OCc3ccc(Cl)cc3)cc2)cn1` [Compound 292, 4-chlorobenzyl (4-((6-methylpyridin-3-yl)methyl)phenyl)carbamate], for which the “AC1.4 Human” value came out at 4.12 µM and the EC50 was 20 µM.

Regarding `COCCN1CCC(Cc2ccc(NC(=O)OCc3cnco3)cc2)CC1` [Compound 293, oxazol-5-ylmethyl (4-((1-(2-methoxyethyl)piperidin-4-yl)methyl)phenyl)carbamate], the “AC1.4 Human” value stood at 4.16 µM and the EC50 is 18.4 µM.

As to `Cc1cnc(C(=O)NCc2ccc(NC(=O)OCc3ccc(Cl)cc3)cc2)o1` [Compound 294, (4-chlorophenyl)methyl N-(4-{[(5-methyl-1,3-oxazol-2-yl)formamido]methyl}phenyl)carbamate], the “AC1.4 Human” value was found to be 4.19 µM and the EC50 was determined as 46.5 µM.

For `Cn1ccc(CC(=O)NCc2ccc(NC(=O)OCc3ccc(Cl)cc3)cc2)n1` [Compound 295, (4-chlorophenyl)methyl N-(4-{[2-(1-methylpyrazol-3-yl)acetamido]methyl}phenyl)carbamate], the “AC1.4 Human” value is 4.57 µM and the EC50 came to 28 µM.

Consider `CC(O)(c1ccncc1)c1ccc(NC(=O)OCc2cnco2)cc1` (stereo not drawn) [Compound 296, oxazol-5-ylmethyl (4-(1-hydroxy-1-(pyridin-4-yl)ethyl)phenyl)carbamate], for which the “AC1.4 Human” value was 4.62 µM and the EC50 is 14.3 µM.

Turning to `O=C(Cc1ncco1)NCc1ccc(NC(=O)OCc2ccc(Cl)cc2)cc1` [Compound 297, (4-chlorophenyl)methyl N-(4-{[2-(1,3-oxazol-2-yl)acetamido]methyl}phenyl)carbamate], the “AC1.4 Human” value amounted to 4.65 µM and the EC50 was 19.8 µM.

Turning to `CN(Cc1ccc(NC(=O)OCc2ccc(Cl)cc2)cc1)C(=O)c1ccc(C(F)F)nc1` [Compound 298, (4-chlorophenyl)methyl N-[4-({1-[6-(difluoromethyl)pyridin-3-yl]-N-methylformamido}methyl)phenyl]carbamate], the “AC1.4 Human” value came to 4.66 µM and the EC50 stood at 20.4 µM.

As to `O=C(Nc1ccc(Cc2ccncc2)cc1)OCc1cnsc1` [Compound 299, isothiazol-4-ylmethyl (4-(pyridin-4-ylmethyl)phenyl)carbamate], the “AC1.4 Human” value is 4.67 µM and the EC50 was 11.6 µM.

Regarding `O=C(Cc1ccc(NC(=O)OCc2ccc(Cl)cc2)cc1)NCc1cnccn1` [Compound 300, (4-chlorophenyl)methyl N-(4-{[(pyrazin-2-ylmethyl)carbamoyl]methyl}phenyl)carbamate], the “AC1.4 Human” value stood at 4.81 µM and the EC50 is 26.4 µM.

In the case of `CC(C)n1nccc1C(=O)NCc1ccc(NC(=O)OCc2ccc(Cl)cc2)cc1` [Compound 301, (4-chlorophenyl)methyl N-(4-{[(2-isopropylpyrazol-3-yl)formamido]methyl}phenyl)carbamate], the “AC1.4 Human” value was found to be 4.81 µM and the EC50 came out at 26.8 µM.

Turning to `CC(C)Cn1nccc1C(=O)NCc1ccc(NC(=O)OCc2ccc(Cl)cc2)cc1` [Compound 302, (4-chlorophenyl)methyl N-[4-({[2-(2-methylpropyl)pyrazol-3-yl]formamido}methyl)phenyl]carbamate], the “AC1.4 Human” value was 4.86 µM and the EC50 was 17.2 µM.

In the case of `O=C(Nc1ccc(Cc2cnccn2)cc1)OCc1ccc(Cl)cc1` [Compound 303, 4-chlorobenzyl (4-(pyrazin-2-ylmethyl)phenyl)carbamate], the “AC1.4 Human” value was found to be 4.87 µM and the EC50 turned out to be 19.4 µM.

`CC(C)N1CC(=O)NC[C@@H]1c1ccc(NC(=O)OCc2ccc(Cl)cc2)cc1` [Compound 304, 4-chlorobenzyl (S)-(4-(1-isopropyl-5-oxopiperazin-2-yl)phenyl)carbamate]: the “AC1.4 Human” value was 4.93 µM and the EC50 is 23.5 µM.

For the molecule `O=C(Nc1ccc(CNC(=O)c2ccc(F)cn2)cc1)OCc1ccc(Cl)cc1` [Compound 305, (4-chlorophenyl)methyl N-(4-{[(5-fluoropyridin-2-yl)formamido]methyl}phenyl)carbamate], the “AC1.4 Human” value is 4.95 µM and the EC50 is 22.9 µM.

For the molecule `N#Cc1ccc(COC(=O)Nc2ccc(Cc3ccncc3)cc2)cc1` [Compound 306, 4-cyanobenzyl (4-(pyridin-4-ylmethyl)phenyl)carbamate], the “AC1.4 Human” value turned out to be 4.97 µM and the EC50 came out at 13.9 µM.

Consider `O=C(Nc1ccc(Cc2ccccc2)cc1)OCc1ccc(Cl)cc1` [Compound 307], for which the “AC1.4 Human” value turned out to be 5.02 µM and the EC50 was found to be 5.55 µM.

For `O=C(Cc1ccc(NC(=O)OCc2ccc(Cl)cc2)cc1)NC1CCOCC1` [Compound 308, (4-chlorophenyl)methyl N-(4-{[(oxan-4-yl)carbamoyl]methyl}phenyl)carbamate], the “AC1.4 Human” value is 5.08 µM and the EC50 was found to be 8.69 µM.

With `O=C(Nc1ccc(CNC(=O)N2CCC(F)(F)CC2)cc1)OCc1ccc(Cl)cc1` [Compound 309, (4-chlorophenyl)methyl N-{4-[(4,4-difluoropiperidine-1-carbonylamino)methyl]phenyl}carbamate], the “AC1.4 Human” value was 5.19 µM and the EC50 was found to be 14.9 µM.

For the molecule `O=C(Nc1ccc(CNC(=O)C2COC2)cc1)OCc1ccc(Cl)cc1` [Compound 310, (4-chlorophenyl)methyl N-{4-[(oxetan-3-ylformamido)methyl]phenyl}carbamate], the “AC1.4 Human” value was determined as 5.29 µM and the EC50 was determined as 32.8 µM.
